Test results reported in patent US9237747B2, “Herbicidal compositions comprising 4-amino-3-chloro-5-fluoro-6-(4-chloro-2-fluoro-3-methoxyphenyl) pyridine-2-carboxylic acid or a derivative thereof and insecticides” (priority 2013, dated 2016).
Read-outs that look alike come from different tables or passages of the source.

What was measured:
SCPJU = assay: Postemergence foliar-applied weed control, direct-seeded rice (greenhouse); type: in vivo, Schoenoplectus juncoides; conditions: 480 g ai/ha alone
Excerpt: Seeds or nutlets of the desired test plant species were planted in a soil matrix prepared by mixing a loam or sandy loam soil (e.g., 28.6 percent silt, 18.8 percent clay, and 52.6 percent sand, with a pH of about 5.8 and an organic matter content of about 1.8 percent) and calcareous grit in an 80 to 20 ratio. The soil matrix was contained in plastic pots with a volume of 1 quart and a surface area of 83.6 square centimeters (cm^2). When required to ensure good germination and healthy plants, a fungicide treatment and/or other chemical or physical treatment was applied. The plants were grown for 8-22 days in a greenhouse with an approximate 14 hour (h) photoperiod which was maintained at about 29° C. during the day and 26° C. during the night. Nutrients (Peters Excel® 15-5-15 5-Ca 2-Mg and iron chelate) were applied in the irrigation solution as needed and water was added on a regular basis. […]
(§1) Treatment requirements were calculated based upon the rates being tested, the concentration of active ingredient or acid equivalent in the formulation, and a 12 milliliter (mL) application volume at a rate of 187 liters per hectare (L/ha).
For treatments comprised of formulated compounds, measured amounts of compounds were placed individually in 25 mL glass vials and diluted in a volume of 1.25% volume per volume (v/v) Agri-Dex® crop oil concentrate to obtain 12× stock solutions. […]

LEFCH = assay: whole plant or invertebrate; type: in vivo, Leptochloa chinensis
Procedure, shortened: (§2)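 Foliar spray, 187 L/ha, track sprayer; 1.25% v/v COC, 8.1% acetone, 0.25% DMSO in spray. Plants at 1st–4th true leaf, greenhouse 29/26 °C. Visual injury 0–100% (0 = none, 100 = complete kill) at ~3 wk after treatment; expected mixture response by Colby.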

CYPIR = type: in vivo, Cyperus iria; conditions: 480 g ai/ha alone
Excerpt: (§3) Seeds or nutlets of the desired test plant species were planted in a soil matrix prepared by mixing a loam or sandy loam soil (e.g., 28.6 percent silt, 18.8 percent clay, and 52.6 percent sand, with a pH of about 5.8 and an organic matter content of about 1.8 percent) and calcareous grit in an 80 to 20 ratio. The soil matrix was contained in plastic pots with a volume of 1 quart and a surface area of 83.6 square centimeters (cm^2). When required to ensure good germination and healthy plants, a fungicide treatment and/or other chemical or physical treatment was applied. The plants were grown for 8-22 days in a greenhouse with an approximate 14 hour (h) photoperiod which was maintained at about 29° C. during the day and 26° C. during the night. Nutrients (Peters Excel® 15-5-15 5-Ca 2-Mg and iron chelate) were applied in the irrigation solution as needed and water was added on a regular basis. Supplemental lighting was provided with overhead metal halide 1000-Watt lamps as necessary. The plants were employed for testing when they reached the first through fourth true leaf stage.
(§4) Treatments consisted of the acid or esters of 4-amino-3-chloro-6-(4-chloro-2-fluoro-3-methoxyphenyl)-5-fluoropyridine-2-carboxylic acid (Compound A), each formulated as an SC (suspension concentrate), and various insecticidal components alone and in combination. Forms of compound A were applied on an acid equivalent basis.
as §1
(§5) For treatments comprised of formulated compounds, measured amounts of compounds were placed individually in 25 mL glass vials and diluted in a volume of 1.25% volume per volume (v/v) Agri-Dex® crop oil concentrate to obtain 12× stock solutions. […] Application solutions were prepared by adding an appropriate amount of each stock solution (e.g., 1 mL) and diluted to the appropriate final concentrations with the addition of […] of an aqueous mixture of 1.25% (v/v) crop oil concentrate so that the final spray solutions contained 1.25+/−0.05% (v/v) crop oil concentrate.
(§6) As required, additional water and/or 97:3 v/v acetone/DMSO was added to individual application solutions so that the final acetone and DMSO concentrations of the application solutions being compared were 8.1% and 0.25%, respectively.
(§7) All stock solutions and applications solutions were visually inspected for compound compatibility prior to application. Spray solutions were applied to the plant material with an overhead Mandel track sprayer equipped with 8002E nozzles calibrated to deliver 187 L/ha over an application area of 0.503 square meters (m^2) at a spray height of 18 to 20 inches (46 to 50 cm) above average plant canopy height. Control plants were sprayed in the same manner with the solvent blank.
(§8) The treated plants and control plants were placed in a greenhouse as described above and watered by sub-irrigation to prevent wash-off of the test compounds. After approximately 3 weeks, the condition of the test plants as compared to that of the untreated plants was determined visually and scored on a scale of 0 to 100 percent where 0 corresponds to no injury or growth inhibition and 100 corresponds to complete kill.
(§9) Colby's equation was used to determine the herbicidal effects expected from the mixtures (Colby, S. R. Calculation of the synergistic and antagonistic response of herbicide combinations. Weeds 1967, 15, 20-22.).
(§10) The following equation was used to calculate the expected activity of mixtures containing two active ingredients, A and B: Expected=A+B−(A×B/100)

ECHCO = assay: Postemergence foliar-applied weed control, direct-seeded rice (greenhouse); type: in vivo, Echinochloa colonum
Method: as §3, with “When required to ensure good germination and healthy plants, a fungicide treatment and/or other chemical or physical treatment was applied.” left out
as §4, §5, §6, §7, §8, §9, §10

ECHCG [1] = type: in vivo, Echinochloa crus-galli
Procedure, shortened: as §2

ECHCG [2] = assay: In-water applied weed control, transplanted paddy rice (greenhouse); type: in vivo, Echinochloa crus-galli
Method: Weed seeds or nutlets of the desired test plant species were planted in puddled soil (mud) prepared by mixing a shredded, non-sterilized mineral soil (50.5 percent silt, 25.5 percent clay, and 24 percent sand, with a pH of about 7.6 and an organic matter content of about 2.9 percent) and water at a 1:1 volumetric ratio. The prepared mud was dispensed in 365 mL aliquots into 16-ounce (oz.) non-perforated plastic pots with a surface area of 86.59 square centimeters (cm^2) leaving a headspace of 3 centimeters (cm) in each pot. Rice seeds were planted in Sun Gro MetroMix® 306 planting mixture, which typically has a pH of 6.0 to 6.8 and an organic matter content of about 30 percent, in plastic plug trays. Seedlings at the second or third leaf stage of growth were transplanted into 860 mL of mud contained in 32-oz. non-perforated plastic pots with a surface area of 86.59 cm^2 4 days prior to herbicide application. The paddy was created by filling the headspace of the pots with 2.5 to 3 cm of water. When required to ensure good germination and healthy plants, a fungicide treatment and/or other chemical or physical treatment was applied. The plants were grown for 4-22 days in a greenhouse with an approximate 14 h photoperiod which was maintained at about 29° C. during the day and about 26° C. during the night. Nutrients were added as Osmocote® (17:6:10, N:P:K+minor nutrients) at 2 grams (g) per 16-oz. pot and 4 g per 32-oz. pot. Water was added on a regular basis to maintain the paddy flood, and supplemental lighting was provided with overhead metal halide 1000-Watt lamps as necessary. The plants were employed for testing when they reached the first through fourth true leaf stage. […]
(§11) Treatment requirements for each compound or herbicidal component were calculated based upon the rates being tested, the concentration of active ingredient or acid equivalent in the formulation, an application volume of 2 mL per component per pot, and an application area of 86.59 cm^2 per pot.
For formulated compounds, a measured amount was placed in an individual 100 or 200 mL glass vial and was dissolved in a volume of 1.25% (v/v) AgriDex® crop oil concentrate to obtain application solutions. […]
The treated plants and control plants were placed in a greenhouse as described above and water was added as needed to maintain a paddy flood. After approximately 3 weeks the condition of the test plants as compared with that of the untreated plants was determined visually and scored on a scale of 0 to 100 percent where 0 corresponds to no injury or growth inhibition and 100 corresponds to complete kill. […]

IPOHE = type: in vivo, Ipomoea hederacea
Method: as §3, with “When required to ensure good germination and healthy plants, a fungicide treatment and/or other chemical or physical treatment was applied.” left out
as §4, §5, §6, §7, §8, §9, §10

CYPRO = assay: In-water applied weed control, transplanted paddy rice (greenhouse); type: in vivo, Cyperus rotundus; conditions: 21 DAA
Method: Weed seeds or nutlets of the desired test plant species were planted in puddled soil (mud) prepared by mixing a shredded, non-sterilized mineral soil (50.5 percent silt, 25.5 percent clay, and 24 percent sand, with a pH of about 7.6 and an organic matter content of about 2.9 percent) and water at a 1:1 volumetric ratio. The prepared mud was dispensed in 365 mL aliquots into 16-ounce (oz.) non-perforated plastic pots with a surface area of 86.59 square centimeters (cm^2) leaving a headspace of 3 centimeters (cm) in each pot. Rice seeds were planted in Sun Gro MetroMix® 306 planting mixture, which typically has a pH of 6.0 to 6.8 and an organic matter content of about 30 percent, in plastic plug trays. Seedlings at the second or third leaf stage of growth were transplanted into 860 mL of mud contained in 32-oz. non-perforated plastic pots with a surface area of 86.59 cm^2 4 days prior to herbicide application. The paddy was created by filling the headspace of the pots with 2.5 to 3 cm of water. When required to ensure good germination and healthy plants, a fungicide treatment and/or other chemical or physical treatment was applied. The plants were grown for 4-22 days in a greenhouse with an approximate 14 h photoperiod which was maintained at about 29° C. during the day and about 26° C. during the night. Nutrients were added as Osmocote® (17:6:10, N:P:K+minor nutrients) at 2 grams (g) per 16-oz. pot and 4 g per 32-oz. pot. Water was added on a regular basis to maintain the paddy flood, and supplemental lighting was provided with overhead metal halide 1000-Watt lamps as necessary. The plants were employed for testing when they reached the first through fourth true leaf stage.
Treatments consisted of the acid or esters of 4-amino-3-chloro-5-fluoro-6-(4-chloro-2-fluoro-3-methoxy-phenyl)pyridine-2-carboxylic acid (compound A) each formulated as an SC (suspension concentrate) and various herbicidal components alone and in combination. Forms of compound A were applied on an acid equivalent basis.
Other […] components were applied on an active ingredient basis and consisted of etofenprox (technical grade material) and sulfoxaflor formulated as Sulfoxaflor WG.
as §11
For formulated compounds, a measured amount was placed in an individual 100 or 200 mL glass vial and was dissolved in a volume of 1.25% (v/v) AgriDex® crop oil concentrate to obtain application solutions.
For technical grade compounds, a weighed amount was placed in an individual 100 to 200 mL glass vial and was dissolved in a volume of acetone to obtain concentrated stock solutions.
Applications were made by injecting with a pipetter appropriate amounts of the application solutions, individually and sequentially, into the aqueous layer of the paddy. Control plants were treated in the same manner with the solvent blank. Applications were made so that all treated plant material received the same concentrations of acetone and crop oil concentrate.
The treated plants and control plants were placed in a greenhouse as described above and water was added as needed to maintain a paddy flood. After approximately 3 weeks the condition of the test plants as compared with that of the untreated plants was determined visually and scored on a scale of 0 to 100 percent where 0 corresponds to no injury or growth inhibition and 100 corresponds to complete kill.
Colby's equation was used to determine the herbicidal effects expected from the mixtures (Colby, S. R. Calculation of the synergistic and antagonistic response of herbicide combinations. Weeds 1967, 15, 20-22.). […]

CYPES = type: in vivo, Cyperus esculentus
Method: as §3, with “When required to ensure good germination and healthy plants, a fungicide treatment and/or other chemical or physical treatment was applied.” left out
as §4, §5, §6, §7, §8, §9, §10

SMILES | Visual Weed Control (%) - 22 DAA SCPJU Obs (SCPJU) | pest or weed control at 480 g/ha (LEFCH; Dinebra chinensis, post-emergence, 528 h, read-out: Visual Weed Control (%) - 22 DAA LEFCH Obs) | Visual Weed Control (%) - 22 DAA CYPIR Obs (CYPIR) | Visual Weed Control (%) - 22 DAA ECHCO Obs (ECHCO; 480 g ai/ha alone) | Visual Weed Control (%) - 22 DAA ECHCG Obs (ECHCG [1]; 75 g ai/ha alone) | Visual Weed Control (%) - 22 DAA ECHCG Obs (ECHCG [1]; 150 g ai/ha alone) | Visual Weed Control (%) - 19 DAA ECHCG Obs (ECHCG [1]; 300 g ai/ha alone) | Visual Weed Control (%) - 21 DAA ECHCG Obs (ECHCG [2]; 75 g ai/ha alone) | Visual Weed Control (%) - 21 DAA ECHCG Obs (ECHCG [2]; 150 g ai/ha alone) | Visual Weed Control (%) - 21 DAA ECHCG Obs (ECHCG [2]; 300 g ai/ha alone) | Visual Weed Control (%) - 19 DAA LEFCH Obs (LEFCH; 300 g ai/ha alone) | pest or weed control at 150 g/ha (LEFCH; Dinebra chinensis, post-emergence, 528 h, 150 g ai/ha alone, read-out: Visual Weed Control (%) - 22 DAA LEFCH Obs) | Visual Weed Control (%) - 22 DAA IPOHE Obs (IPOHE; 75 g ai/ha alone) | Visual Weed Control (%) - 22 DAA IPOHE Obs (IPOHE; 150 g ai/ha alone) | Visual Weed Control (%) - 21 DAA CYPRO Obs (CYPRO; 75 g ai/ha alone) | Visual Weed Control (%) - 21 DAA CYPRO Obs (CYPRO; 150 g ai/ha alone) | Visual Weed Control (%) - 21 DAA CYPRO Obs (CYPRO; 300 g ai/ha alone) | Visual Weed Control (%) - 22 DAA CYPES Obs (CYPES; 75 g ai/ha alone) | Visual Weed Control (%) - 22 DAA CYPES Obs (CYPES; 150 g ai/ha alone) | Visual Weed Control (%) - 19 DAA ECHCO Obs (ECHCO; 300 g ai/ha alone)
CNC(=O)CSP(=S)(OC)OC [Dimethoate, O,O-dimethyl S-methylcarbamoylmethyl phosphorodithioate] | 0% | 0% | 0% | 10% | – | – | – | – | – | – | – | – | – | – | – | – | – | – | – | –
CCOc1ccc(C(C)(C)COCc2cccc(Oc3ccccc3)c2)cc1 [Etofenprox, 2-(4-ethoxyphenyl)-2-methylpropyl 3-phenoxybenzyl ether] | – | – | – | – | 0% | 0% | 0% | 0% | 0% | 0% | 0% | 0% | 0% | 0% | 0% | 0% | 0% | 0% | 0% | 0%
